Some test systems named below: A549 NSCLC; COLO 205 colon; HCC-2998 colon; HL-60(TB) leukemia; HOP-62 NSCLC; HOP-92 NSCLC; HT29 colon; KM12 colon; MCF7 breast; NCI/ADR-RES ovarian; RPMI-8226 leukemia; SK-MEL-5 melanoma; SR leukemia; U251 CNS; SNB-19 CNS; OVCAR-3 ovarian; SF-295 CNS.
Holding throughout (experiment): growth of human tumour cells (NCI), 48 h

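A five-concentration, 48-hour dose response in 96-well plates underlies each endpoint, interpolated linearly between surrounding concentrations. TGI denotes the concentration required for complete inhibition of growth.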

`O=C(Cc1ccccc1)NNc1nc(NNC(=O)c2ccncc2)nc(Nc2cccc(Cl)c2)n1`: the TGI in the assay with A549 NSCLC, with COLO 205 colon, in the assay on HCC-2998 colon, in the assay on HL-60(TB) leukemia, with HOP-62 NSCLC and in the assay on HOP-92 NSCLC was above 10 µM each time. Besides, the TGI in the assay on HT29 colon, in the assay on KM12 colon, with MCF7 breast, with NCI/ADR-RES ovarian, with RPMI-8226 leukemia and in the assay with SK-MEL-5 melanoma was above 10 µM throughout. Also, the TGI with SR leukemia and with U251 CNS was above 10 µM throughout.

As to `CC(C)C/C=C/C1=NN(c2cccc(S(=O)(=O)O)c2)C2(C1)SCC(=O)N2c1nc2ccccc2s1` (stereo not given), the TGI was above 100 µM in the assay on A549 NSCLC; above 100 µM with COLO 205 colon; above 100 µM with HCC-2998 colon; 82 µM with HL-60(TB) leukemia; above 100 µM in the assay with HOP-92 NSCLC; above 100 µM with HT29 colon. Besides, the TGI in the assay on KM12 colon is above 100 µM; with MCF7 breast, above 100 µM; in the assay with NCI/ADR-RES ovarian, above 100 µM; in the assay with RPMI-8226 leukemia, 49.6 µM; with SK-MEL-5 melanoma it was above 100 µM; in the assay on SNB-19 CNS, above 100 µM. Besides, the TGI with SR leukemia was 74.5 µM; in the assay on U251 CNS, above 100 µM.

In the case of `CN(C)CCn1c(=O)c2ccc3c4c(nn3CCN(C)C)c3cc(O)ccc3n(c1=O)c24`, the TGI in the assay with A549 NSCLC was 1.54 µM; in the assay with COLO 205 colon, 0.609 µM; with HCC-2998 colon, 0.176 µM; with HL-60(TB) leukemia it was 1.96 µM; with HOP-62 NSCLC, 0.566 µM; in the assay with HT29 colon, 0.262 µM. In addition, the TGI stood at 3.5 µM in the assay on KM12 colon; 0.392 µM in the assay on MCF7 breast; 6.82 µM in the assay on NCI/ADR-RES ovarian; 0.842 µM in the assay on OVCAR-3 ovarian; 0.406 µM with RPMI-8226 leukemia; 0.271 µM in the assay with SF-295 CNS. Besides, the TGI turned out to be 0.787 µM in the assay on SK-MEL-5 melanoma, 1 µM in the assay with SNB-19 CNS and 0.0505 µM with SR leukemia.

With `Nc1nc(N)c2[nH]cnc2n1` (tested in a mixture with another compound), the TGI with A549 NSCLC is 47.4 µM; in the assay on COLO 205 colon, above 100 µM; in the assay with HL-60(TB) leukemia it was above 100 µM; in the assay on HOP-62 NSCLC, above 100 µM; in the assay on HOP-92 NSCLC it was above 100 µM; in the assay with HT29 colon, above 100 µM. The TGI with KM12 colon was above 100 µM; in the assay on MCF7 breast, 21.7 µM; in the assay with NCI/ADR-RES ovarian, above 100 µM; in the assay with OVCAR-3 ovarian, 74.4 µM; in the assay on RPMI-8226 leukemia, above 100 µM; in the assay with SF-295 CNS, above 100 µM. Besides, the TGI is 85.3 µM in the assay with SK-MEL-5 melanoma, above 100 µM in the assay on SNB-19 CNS, above 100 µM in the assay with SR leukemia and above 100 µM in the assay on U251 CNS.

As for `CC(C)CC(NC(=O)C(CCI)Cc1ccccc1)C(=O)Nc1ccccc1` (stereo not given), the TGI is above 100 µM in the assay with A549 NSCLC; above 100 µM in the assay on COLO 205 colon; above 100 µM in the assay on HCC-2998 colon; 64.6 µM in the assay with HL-60(TB) leukemia; above 100 µM with HOP-92 NSCLC; above 100 µM in the assay on KM12 colon. Moreover, the TGI in the assay with MCF7 breast, in the assay with NCI/ADR-RES ovarian, in the assay on OVCAR-3 ovarian, in the assay on RPMI-8226 leukemia, with SF-295 CNS and in the assay with SK-MEL-5 melanoma was above 100 µM in each case. Moreover, the TGI in the assay with SNB-19 CNS, with SR leukemia and with U251 CNS was above 100 µM in each case.

Take `COC(=O)C1CCC(=O)N1C(c1ccccc1)c1cc(OC)c(OC)c(OC)c1` (stereo not given): the TGI with A549 NSCLC was above 100 µM; in the assay with COLO 205 colon it was above 100 µM; in the assay with HCC-2998 colon, above 100 µM; in the assay on HL-60(TB) leukemia, 57.8 µM; in the assay on HOP-62 NSCLC, above 100 µM; with HOP-92 NSCLC, above 100 µM. Moreover, the TGI in the assay with HT29 colon, with KM12 colon, in the assay with MCF7 breast, with NCI/ADR-RES ovarian, in the assay with OVCAR-3 ovarian and in the assay with SF-295 CNS was above 100 µM each time. The TGI in the assay with SNB-19 CNS, in the assay on SR leukemia and in the assay on U251 CNS was above 100 µM each time.

As to `c1ccc2c(c1)nc1n2C2CCC(C2)N1` (stereo not given), the TGI with A549 NSCLC, in the assay with COLO 205 colon, in the assay on HCC-2998 colon, with HL-60(TB) leukemia, in the assay with HOP-62 NSCLC and with HOP-92 NSCLC was above 10 µM each time. Also, the TGI in the assay with HT29 colon, in the assay on MCF7 breast, in the assay on NCI/ADR-RES ovarian, in the assay on OVCAR-3 ovarian, in the assay with RPMI-8226 leukemia and with SF-295 CNS was above 10 µM in each case. Also, the TGI in the assay with SK-MEL-5 melanoma, with SNB-19 CNS, in the assay on SR leukemia and in the assay with U251 CNS was above 10 µM in each case.

In the case of `C/C(CC1SCCCS1)=C(/C)CC1SCCCS1`, the TGI in the assay on A549 NSCLC, in the assay with COLO 205 colon, in the assay on HCC-2998 colon, in the assay on HL-60(TB) leukemia, in the assay with HOP-62 NSCLC and with HT29 colon was above 100 µM each time. In addition, the TGI with KM12 colon, in the assay on MCF7 breast, with NCI/ADR-RES ovarian, in the assay with OVCAR-3 ovarian, with RPMI-8226 leukemia and in the assay with SF-295 CNS was above 100 µM each time. Also, the TGI in the assay on SK-MEL-5 melanoma, in the assay on SNB-19 CNS and in the assay on SR leukemia was above 100 µM throughout.

For `COC(C)(C)CCc1[nH]c2ccccc2c1CC(=O)NCCc1cncn1C`, the TGI in the assay with A549 NSCLC, in the assay on COLO 205 colon, in the assay with HCC-2998 colon, in the assay with HL-60(TB) leukemia, with HOP-92 NSCLC and in the assay with HT29 colon was above 100 µM in each case. Also, the TGI with KM12 colon, in the assay with MCF7 breast, in the assay with NCI/ADR-RES ovarian, in the assay with OVCAR-3 ovarian, with RPMI-8226 leukemia and in the assay with SK-MEL-5 melanoma was above 100 µM each time. Moreover, the TGI in the assay on SNB-19 CNS, in the assay on SR leukemia and with U251 CNS was above 100 µM throughout.

Values taken from PubChem BioAssay (NCI).
